Values after ≈ are worked out from the molar mass of the structure shown. Where two headings read alike, the source gives them in different places.
Tests used:
[1] = tested on: E. coli ATCC 25922; assay: Minimum inhibitory concentration (MIC), E. coli; assay type: cell-based, Escherichia coli; details: Escherichia coli
Method: (§1) Bacterial Strains. The Streptococcus pyogenes strains, Klebsiella pneumoniae, Escherichia coli, Staphylococcus aureus, Enterococcus faecalis used in the antibacterial activity studies ATCC 14289, 49399, 13883, 25922, 13709, 29212, respectively, are obtained from the American Type Culture Collection, Rockville, Md. The strain E. coli imp— is a mutant strain of wild type E. coli with increased outer membrane permeability and was grown in LB broth at 37 °C. S. pyogenes strain is grown in Todd-Hewitt broth. S. aureus is grown in trypticase soy broth, E. faecalis in Todd-Hewitt broth, wild type E. coli and K. pneumoniae, in nutrient broth.
(§2) Determination of Minimum Inhibitory Concentrations (MICs). The assays were carried out in […] volume in duplicate in 96-well clear flat-bottom plates. The bacterial suspension from an overnight culture growth in appropriate medium was added to a solution of test compound in 4% DMSO in water. Final bacterial inoculum was approximately 10^5-10^6 CFU/well. The percent growth of the bacteria in test wells relative to that observed for a well containing no compound was determined by measuring absorbance at 595 nm (A595) after 24 h. […] Both ampicillin and tetracycline is used as antibiotic-positive controls in each screening assay for S. pyogenes, E. coli imp-, E. coli, S. aureus, E. faecalis, K pneumoniae and P. vulgaris. Ciprofloxacin is used as an antibiotic positive control in each screening assay for P. aeruginosa.

[2] = tested on: S. aureus ATCC 13709; assay: Minimum inhibitory concentration (MIC), S. aureus; assay type: cell-based, Staphylococcus aureus; details: Staphylococcus aureus
Method: as §1, §2

[3] = ATCC25922, 24 h, read-out: MIC (E. coli)
[4] = ATCC13709, 24 h, read-out: MIC (S. aureus)
[5] = ATCC25922, read-out: MIC (E. coli) +serum
[6] = ATCC25922, read-out: MIC (E. coli) alone
[7] = ATCC13709, read-out: MIC (S. aureus) +serum, with serum
[8] = ATCC13709, read-out: MIC (S. aureus) alone, alone (no serum)

With `CN(C)CCCOc1ccc(C(NC(=O)c2ccc(-c3cccc(NC(=O)c4ccc(-c5cc(Cl)cc(Cl)c5)cc4)c3)o2)C(=O)N2CCNCC2)cc1` (stereo not shown) [Compound 49] the MIC [1, 3] was over 100 mM and the MIC [2, 4] was over 100 mM.

For `Cc1ccc(F)cc1-c1ccc(C(=O)Nc2cccc(-c3ccc(C(=O)NC(C(=O)N4CCNCC4)c4ccc(OCCCN(C)C)cc4)o3)c2)cc1` (stereo not shown) [Compound 52], the MIC [1, 3] was 13 to 25 mM (≈ 9330 to 17900 µg/mL) and the MIC [2, 4] was 6 to 13 mM (≈ 4310 to 9330 µg/mL).

Molecule `CN(C)CCCOc1ccc(C(NC(=O)c2ccc(-c3cccc(NC(=O)c4ccc(-c5ccccc5F)cc4)c3)o2)C(=O)N2CCNCC2)cc1` (stereo not shown) [Compound 53] has an MIC [1, 3] of 13 to 25 mM (≈ 9150 to 17600 µg/mL) and an MIC [2, 4] of 6 to 13 mM (≈ 4220 to 9150 µg/mL).

`CN(C)CCCOc1ccc(C(NC(=O)c2ccc(-c3cccc(NC(=O)c4ccc(-c5c(F)cccc5F)cc4)c3)o2)C(=O)N2CCNCC2)cc1` (stereo not shown) [Compound 54] was tested, and the MIC [1, 3] was 3 to 6 mM (≈ 2170 to 4330 µg/mL) and the MIC [2, 4] was 13 to 25 mM (≈ 9380 to 18000 µg/mL).

For `CN(C)CCCOc1ccc(C(NC(=O)c2ccc(-c3cccc(NC(=O)c4ccc(-c5ccc(F)cc5F)cc4)c3)o2)C(=O)N2CCNCC2)cc1` (stereo not shown) [Compound 55], the MIC [1, 3] was 25 to 50 mM (≈ 18000 to 36100 µg/mL) and the MIC [2, 4] was 6 to 13 mM (≈ 4330 to 9380 µg/mL).

`CN(C)CCCOc1ccc(C(NC(=O)c2ccc(-c3cccc(NC(=O)c4ccc(-c5ccccc5)cc4F)c3)o2)C(=O)N2CCNCC2)cc1` (stereo not shown) [Compound 59] showed an MIC [1, 3] of 3 to 6 mM (≈ 2110 to 4220 µg/mL) and an MIC [2, 4] of 6 to 13 mM (≈ 4220 to 9150 µg/mL).

`CN(C)CCCOc1ccc(C(NC(=O)c2ccc(-c3cccc(NC(=O)c4ccc(-c5ccccc5)cc4Cl)c3)o2)C(=O)N2CCNCC2)cc1` (stereo not shown) [Compound 60] was tested, and the MIC [1, 3] was 6 to 13 mM (≈ 4320 to 9360 µg/mL) and the MIC [2, 4] was 25 to 50 mM (≈ 18000 to 36000 µg/mL).

`Cc1cc(C(=O)Nc2cccc(-c3ccc(C(=O)NC(C(=O)N4CCNCC4)c4ccc(OCCCN(C)C)cc4)o3)c2)ccc1-c1ccccc1` (stereo not shown) [Compound 62] gave an MIC [1, 3] of 3 to 6 mM (≈ 2100 to 4200 µg/mL) and an MIC [2, 4] of 12 to 25 mM (≈ 8400 to 17500 µg/mL).

Molecule `CN(C)CCCOc1ccc(C(C(=O)N2CCNCC2)N(C)Cc2ccc(-c3cccc(NC(=O)c4ccc(-c5ccccc5)cc4)c3)o2)cc1` (stereo not shown) [Compound 64] has an MIC [1, 3] of 6 to 13 mM (≈ 4120 to 8920 µg/mL) and an MIC [2, 4] of 3 to 6 mM (≈ 2060 to 4120 µg/mL).

`CN(C)CCCOc1ccc(C(NC(=O)c2ccc(-c3cccc(NCc4ccc(-c5ccccc5)cc4)c3)o2)C(=O)N2CCNCC2)cc1` (stereo not shown) [Compound 65] showed an MIC [1, 3] of 13 to 25 mM (≈ 8730 to 16800 µg/mL) and an MIC [2, 4] of 3 to 6 mM (≈ 2020 to 4030 µg/mL).

For `CN(C)CCCOc1ccc(C(NC(=O)c2ccc(-c3cccc(N(C)Cc4ccc(-c5ccccc5)cc4)c3)o2)C(=O)N2CCNCC2)cc1` (stereo not shown) [Compound 66], the MIC [1, 3] was 13 to 25 mM (≈ 8920 to 17100 µg/mL) and the MIC [2, 4] was 3 to 6 mM (≈ 2060 to 4120 µg/mL).

Molecule `CN(C)CCCCC(NC(=O)c1ccc(-c2cccc(NC(=O)c3ccc(-c4ccccc4)cc3)c2)o1)C(=O)N1CCNCC1` (stereo not shown) [Compound 68] has an MIC [1, 3] of 50 to 100 mM (≈ 30400 to 60800 µg/mL) and an MIC [2, 4] of 25 to 50 mM (≈ 15200 to 30400 µg/mL).

For `CN(C)CCCOc1ccc(C(NC(=O)c2ccc(-c3cccc(NC(=O)c4ccc(-c5ccccc5)cc4)c3)s2)C(=O)N2CCNCC2)cc1` (stereo not shown) [Compound 69], the MIC [1, 3] was 25 to 50 mM (≈ 17500 to 35100 µg/mL) and the MIC [2, 4] was 25 to 50 mM (≈ 17500 to 35100 µg/mL).

Work on `CN(C)CCCOc1ccc(C(NC(=O)c2ccc(-c3cccc(NC(=O)c4ccc(-c5ccccc5)cc4)c3)o2)C(=O)N2CCN(C)CC2)cc1` (stereo not shown) [Compound 70] yielded an MIC [1, 3] of 25 to 50 mM (≈ 17500 to 35000 µg/mL) and an MIC [2, 4] of 25 to 50 mM (≈ 17500 to 35000 µg/mL).

For `CN(C)CCCOc1ccc(C(NC(=O)c2ccc(-c3cccc(NC(=O)c4ccc(-c5ccccc5)cc4)c3)o2)C(=O)N2CCN(S(C)(=O)=O)CC2)cc1` (stereo not shown) [Compound 71], the MIC [1, 3] was over 100 mM and the MIC [2, 4] was over 100 mM.

`COC(=O)N1CCN(C(=O)C(NC(=O)c2ccc(-c3cccc(NC(=O)c4ccc(-c5ccccc5)cc4)c3)o2)c2ccc(OCCCN(C)C)cc2)CC1` (stereo not shown) [Compound 72] showed an MIC [1, 3] of over 100 mM and an MIC [2, 4] of over 100 mM.

`CN(C)CCCOc1ccc(C(NC(=O)c2ccc(-c3cccc(NC(=O)c4ccc(-c5ccccc5)cc4)c3)o2)C(=O)N2CCNCC2)cc1` (stereo not shown) [drawing 88] showed an MIC [1, 5] of 50 to 100 mM (≈ 34300 to 68600 µg/mL), an MIC [1, 6] of 6 to 13 mM (≈ 4110 to 8920 µg/mL) and an MIC [2, 7] of 50 to 100 mM (≈ 34300 to 68600 µg/mL). It also gave an MIC [2, 8] of 3 to 6 mM (≈ 2060 to 4110 µg/mL).

Molecule `CN(C)CCCOc1ccc(C(NC(=O)c2ccc(-c3cccc(N(C)Cc4ccc(-c5ccccc5)cc4)c3)o2)C(=O)N2CCNCC2)cc1` (stereo not shown) [drawing 89] has an MIC [1, 5] of over 100 mM, an MIC [1, 6] of 6 to 13 mM (≈ 4120 to 8920 µg/mL) and an MIC [2, 7] of 50 to 100 mM (≈ 34300 to 68600 µg/mL). The MIC [2, 8] was 3 to 6 mM (≈ 2060 to 4120 µg/mL).

Source: US7432264B2, “Antimicrobial biaryl compounds” (Isis Pharmaceuticals, Inc., priority 2000, dated 2008)
